Where “and” joins values, the source holds several entries; their conditions need not be identical. Identical values can stand only once.
What was measured:
[1] = test system: Balb C mice; experiment: Acute toxicity study; type: in vivo; conditions: I/P, highest tested dose 150 mg/kg, 24 hours
[2] = test system: Balb C mice; experiment: Formalin-induced paw-licking test
[3] = biological target: COX-1 (Homo sapiens, UniProt P23219); experiment: Cyclooxygenase-1; type: biochemical; conditions: IC50 COX-1, ±SEM, triplicate
Sequence of COX-1 (P23219 24-599): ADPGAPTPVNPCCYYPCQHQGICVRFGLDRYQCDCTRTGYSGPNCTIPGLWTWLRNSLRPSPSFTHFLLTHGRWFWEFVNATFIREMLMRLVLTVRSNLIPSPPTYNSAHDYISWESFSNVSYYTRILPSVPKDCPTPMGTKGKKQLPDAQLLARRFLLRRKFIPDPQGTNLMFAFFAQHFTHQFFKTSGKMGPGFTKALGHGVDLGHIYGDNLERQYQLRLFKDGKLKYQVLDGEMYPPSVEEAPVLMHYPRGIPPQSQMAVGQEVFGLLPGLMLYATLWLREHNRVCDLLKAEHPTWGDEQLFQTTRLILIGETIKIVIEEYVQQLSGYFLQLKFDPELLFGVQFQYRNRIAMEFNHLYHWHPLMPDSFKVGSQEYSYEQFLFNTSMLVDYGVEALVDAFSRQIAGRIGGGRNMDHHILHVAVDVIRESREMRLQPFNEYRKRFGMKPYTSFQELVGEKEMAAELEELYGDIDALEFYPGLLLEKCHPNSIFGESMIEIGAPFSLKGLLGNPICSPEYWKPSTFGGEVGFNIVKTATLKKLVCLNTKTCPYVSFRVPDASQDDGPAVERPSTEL

[4] = test system: Alpha-2 Adrenergic Receptor; experiment: Involvement of adrenergic receptors; type: in vivo, mice
[5] = test system: Balb C mice; experiment: Tail immersion; type: in vivo
[6] = test system: Balb C mice; experiment: Acetic acid induced writhing test; type: in vivo; conditions: 50 mg/kg
[7] = biological target: T1, COX-2 (Homo sapiens, UniProt P35354); experiment: Cyclooxygenase-2; type: biochemical; conditions: for IC50: IC50 COX-2, ±SEM, triplicate
T1 sequence (P35354 18-604): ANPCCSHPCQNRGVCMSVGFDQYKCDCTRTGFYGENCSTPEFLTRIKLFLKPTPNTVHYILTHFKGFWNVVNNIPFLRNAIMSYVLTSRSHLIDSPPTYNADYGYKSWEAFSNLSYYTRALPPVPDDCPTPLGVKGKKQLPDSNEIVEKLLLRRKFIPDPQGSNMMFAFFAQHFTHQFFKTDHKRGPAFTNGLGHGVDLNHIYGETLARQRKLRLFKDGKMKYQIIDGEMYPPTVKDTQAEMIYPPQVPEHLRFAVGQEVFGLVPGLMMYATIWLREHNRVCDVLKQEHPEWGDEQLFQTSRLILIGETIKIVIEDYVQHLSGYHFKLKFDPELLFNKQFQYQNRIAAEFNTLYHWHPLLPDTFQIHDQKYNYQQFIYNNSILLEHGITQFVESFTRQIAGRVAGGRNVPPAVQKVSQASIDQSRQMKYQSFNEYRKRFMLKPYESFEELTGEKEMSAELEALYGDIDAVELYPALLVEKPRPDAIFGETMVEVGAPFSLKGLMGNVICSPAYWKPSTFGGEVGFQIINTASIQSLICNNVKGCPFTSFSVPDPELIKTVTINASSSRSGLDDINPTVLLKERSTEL

[8] = test system: Dopaminergic Receptor; experiment: Involvement of dopaminergic receptors; type: in vivo, mice
[9] = 25 mg/kg, with naloxone (N, 2 mg/kg s.c.)
[10] = 50 mg/kg, with naloxone (N, 2 mg/kg s.c.)
[11] = 25 mg/kg after yohimbine (YH, 1 mg/kg)
[12] = 50 mg/kg after yohimbine (YH, 1 mg/kg)
[13] = 25 mg/kg after haloperidol (HL, 1 mg/kg)
[14] = 50 mg/kg after haloperidol (HL, 1 mg/kg)
[15] = haloperidol alone, 1 mg/kg i.p.
[16] = 10 mg/kg, with naloxone (N, 2 mg/kg s.c.)
[17] = 5 mg/kg, with naloxone (N, 2 mg/kg s.c.)

SMILES: CCC[C@](C)(C=O)[C@@H]1CC(=O)N(c2ccccc2)C1=O [Compound 4, (S)-2-((S)-2,5-dioxo-1-phenylpyrrolidin-3-yl)-2-methylpentanal]
- Acute toxicity (adverse effect, change in body weight, mortality) [1]: safe
- Inhibition (%) 1st Phase ([2]; 25 mg/kg): 22.30±0.85%
- Inhibition (%) 2nd Phase ([2]; 25 mg/kg): 38.94±2.88%
- Licking Time 1st Phase ([2]; 25 mg/kg): 39.35 ± 1.231 s
- Licking Time 2nd Phase ([2]; 25 mg/kg): 45.12 ± 1.145 s
- Inhibition (%) 1st Phase [2, 9]: 17.47±1.89%
- Inhibition (%) 2nd Phase [2, 9]: 33.76±2.53%
- Licking Time 1st Phase [2, 9]: 41.80 ± 1.33 s
- Licking Time 2nd Phase [2, 9]: 48.95 ± 1.40 s
- Inhibition (%) 1st Phase ([2]; 50 mg/kg): 36.16±4.47%
- Inhibition (%) 2nd Phase ([2]; 50 mg/kg): 50.66±3.84%
- Licking Time 1st Phase ([2]; 50 mg/kg): 32.33 ± 1.356 s
- Licking Time 2nd Phase ([2]; 50 mg/kg): 36.45 ± 1.232 s
- Inhibition (%) 1st Phase [2, 10]: 23.69±1.44%
- Inhibition (%) 2nd Phase [2, 10]: 42.15±1.43%
- Licking Time 1st Phase [2, 10]: 38.65 ± 1.25 s
- Licking Time 2nd Phase [2, 10]: 42.75 ± 1.65 s
- IC50 [3]: 128 µM
- % Activity [4, 11]: 15.58±1.44%
- Writhing [4, 11]: 57.09±2.20
- % Activity [4, 12]: 16.08±1.08%
- Writhing [4, 12]: 56.73±1.05
- Tail flick Response (%) ([5]; 25 mg/kg i.p., 15 Minutes): 11.1%
- Tail flick Response (%) ([5]; 25 mg/kg i.p., 30 Minutes): 14.8%
- Tail flick Response (%) ([5]; 25 mg/kg i.p., 45 Minutes): 16.3%
- Tail flick Response (%) ([5]; 25 mg/kg i.p., 60 Minutes): 18.9%
- Tail flick Response (%) ([5]; 25 mg/kg i.p., 75 Minutes): 29.5%
- Tail flick Response (%) ([5]; 25 mg/kg i.p., 75 Minutes, listed as Comp 4): 29.5%
- Tail flick Response (%) ([5]; 25 mg/kg i.p., 90 Minutes): 19.8%
- Tail flick Response (%) ([5]; 50 mg/kg i.p., 15 Minutes): 14.8%
- Tail flick Response (%) ([5]; 50 mg/kg i.p., 30 Minutes): 22.7%
- Tail flick Response (%) ([5]; 50 mg/kg i.p., 45 Minutes): 33.7%
- Tail flick Response (%) ([5]; 50 mg/kg i.p., 60 Minutes): 42.1%
- Tail flick Response (%) ([5]; 50 mg/kg i.p., 75 Minutes): 53.4%
- Tail flick Response (%) ([5]; 50 mg/kg i.p., 75 Minutes, listed as Comp 4): 53.4%
- Tail flick Response (%) ([5]; 50 mg/kg i.p., 90 Minutes): 46.2%
- Tail flick Response (%) ([5]; 50 mg/kg i.p., 90 Minutes, listed as Comp 4): 46.2%
- Inhibition of writhing ([6]; n=6): 52.2%
- Selectivity Index (SI) (IC50 COX-1/IC50 COX-2) [7]: 1.94
- IC50 [7]: 65 µM and 65.9 µM
- % Activity [8, 13]: 16.52±1.25%
- Writhing [8, 13]: 56.42±1.05
- % Activity [8, 14]: 16.70±1.16%
- Writhing [8, 14]: 56.23±1.05

SMILES: CC(=O)CC(C[N+](=O)[O-])c1ccccc1 (stereo not shown) [Compound 9, 5-nitro-4-phenylpentan-2-one]
- IC50 [3]: 67.6 ± 1.02 µM
- Selectivity Index (SI) (IC50 COX-1/IC50 COX-2) [7]: 0.91
- IC50 [7]: 73.5 ± 1.38 µM

SMILES: O=C(CCCN1CCC(O)(c2ccc(Cl)cc2)CC1)c1ccc(F)cc1 [Haloperidol, haloperidol, reference compound]
- % Activity [8, 15]: 17.50±1.28%
- Writhing [8, 15]: 55.78±2.02

SMILES: COc1ccc2c(c1)c(CC(=O)O)c(C)n2C(=O)c1ccc(Cl)cc1 [Indomethacin, indomethacin, reference compound]
- Inhibition (%) 1st Phase ([2]; 10 mg/kg): 23.69±3.24%
- Inhibition (%) 2nd Phase ([2]; 10 mg/kg): 74.34±2.86%
- Licking Time 1st Phase ([2]; 10 mg/kg): 38.65 ± 1.37 s
- Licking Time 2nd Phase ([2]; 10 mg/kg): 18.96 ± 1.342 s
- Inhibition (%) 1st Phase [2, 16]: 11.64±1.20%
- Licking Time 1st Phase [2, 16]: 44.75 ± 1.76 s
- Licking Time 2nd Phase [2, 16]: 25.00 ± 1.249 s

SMILES: CN1CC[C@]23c4c5ccc(O)c4O[C@H]2[C@@H](O)C=C[C@H]3[C@H]1C5 [Morphine, morphine, reference compound]
- Inhibition (%) 1st Phase ([2]; 5 mg/kg): 87.16±3.32%
- Inhibition (%) 2nd Phase ([2]; 5 mg/kg): 96.34±0.66%
- Licking Time 1st Phase ([2]; 5 mg/kg): 6.50 ± 1.153 s
- Licking Time 2nd Phase ([2]; 5 mg/kg): 2.70 ± 1.340 s
- Inhibition (%) 1st Phase [2, 17]: 2.68±1.20%
- Inhibition (%) 2nd Phase [2, 17]: 1.44±0.28%
- Licking Time 1st Phase [2, 17]: 49.29 ± 1.52 s
- Licking Time 2nd Phase [2, 17]: 72.83 ± 1.152 s
- Tail flick Response (%) ([5]; 5 mg/kg, 15 Minutes): 48.1%
- Tail flick Response (%) ([5]; 5 mg/kg, 30 Minutes): 56.1%
- Tail flick Response (%) ([5]; 5 mg/kg, 45 Minutes): 75%
- Tail flick Response (%) ([5]; 5 mg/kg, 60 Minutes): 85%
- Tail flick Response (%) ([5]; 5 mg/kg, 75 Minutes): 80.2%
- Tail flick Response (%) ([5]; 5 mg/kg, 75 Minutes, listed as morphine): 80.2%
- Tail flick Response (%) ([5]; 5 mg/kg, 90 Minutes): 78.4%
- Tail flick Response (%) ([5]; 5 mg/kg, 90 Minutes, listed as morphine): 78.4%

SMILES: COC(=O)[C@@H]1[C@H]2C[C@H]3c4[nH]c5ccccc5c4CCN3C[C@@H]2CC[C@@H]1O [Yohimbine, yohimbine, reference compound]
- % Activity ([4]; yohimbine alone, 1 mg/kg i.p.): 15.08±1.15%
- Writhing ([4]; yohimbine alone, 1 mg/kg i.p.): 57.4±2.02

SMILES: O=C(O)Cc1ccccc1Nc1c(Cl)cccc1Cl [diclofenac sodium]
- Inhibition of writhing ([6]; n=6): 85%
- Inhibition of writhing ([6]; n=6, listed as diclofenac): 84.96%

From PMC8001115 (Drug Design, Development and Therapy, 2021)
